Measured values as given in publication PMC8513058, “Synthesis and Evaluation of Novel 1,2,6-Thiadiazinone Kinase Inhibitors as Potent Inhibitors of Solid Tumors” (Molecules, 2021).
Where two headings read alike, the source gives them in different places.

Tests used:
[1] = parameters: method as in PMID 29783765; conditions: previously assessed; cited from earlier work
PANC-1 cells [2] = test: Cancer cell line viability screen (alamarBlue), PANC1; conditions: Homo sapiens, PANC-1, 72 h, read-out: IC50 PANC1
Procedure: (§1) This included pancreatic, bladder, prostate, breast, chordoma, and lung cancer cell lines while a skin fibroblast cell line was used as a toxicity control [33, 34, 35, 36].
(§2) DU145 and MCF-7 cells were cultured in MEM medium supplemented with 10% FBS and 1% penicillin/streptomycin. […] Cells were seeded in 384-well plates and were treated with test compound in quadruplicate 24 h after plating. Cell viability was assessed at 72 h using alamarBlue (ThermoFisher, Waltham, MA, USA). […] IC50 values were determined by nonlinear regression using GraphPad PrismTM software (GraphPad Software Inc., San Diego, CA, US).

[3] = Chemical stability of thiadiazinones under aqueous, nucleophile, oxidizing and reducing conditions; type: physicochemical; conditions: tested similarly to 3,5-bis(phenylamino)-4H-1,2,6-thiadiazin-4-one: neutral, acidic, slightly basic aqueous, amine or thiol nucleophiles
Source text: It is important to note that the stability of dianilinothiadiazinones in biological systems has previously been assessed.

WS-1 cell line [4] = test: Toxicity control viability screen (alamarBlue), WS-1 skin fibroblasts; conditions: WS1, 72 h, read-out: IC50 WS-1
Procedure: as §1, §2

MCF-7 cells [5] = test: Cancer cell line viability screen (alamarBlue), MCF7; conditions: Homo sapiens, MCF7, 72 h, read-out: IC50 MCF7
Procedure: as §1, §2

DU145 cells [6] = test: Cancer cell line viability screen (alamarBlue), DU145; conditions: Homo sapiens, DU-145, 72 h, read-out: IC50 DU145
Procedure: as §1, §2

[7] = system: kinases in SUM159 cell lysates; test: MIBS kinome profiling (MIB-MS competitive displacement); type: binding; conditions: 1 μM compound vs DMSO, SUM159 lysate; for kinome profile: 350-400 kinases detected
Procedure: We then assessed the kinome profile of thiadiazinones 16, 17, and 26 all at 1 μM using a multiplexed kinase inhibitor bead set and quantitative mass spectrometry for detection of kinase peptides (MIB-MS). The MIB-MS proteomics was able to detect between 350 and 400 kinases in the cell lysates and competitive displacement of specific kinases from the beads was used to determine the kinome profile of the thiadiazinone kinase inhibitors.
Previously described. Briefly, multiplexed inhibitor beads (MIBS) affinity chromatography/MS analysis: SUM159 cells were cultured in a 50:50 mixture of DMEM and Nutrient Mixture F-12 medium (Gibco) supplemented with 5% fetal bovine serum, 1% anti/anti, […] insulin, and […] hydrocortisone. Cells were maintained at 37 °C in a humidified 5% CO2 atmosphere. SUM159 cells were grown to 80% confluency, washed twice with PBS, and harvested by scraping cells in lysis buffer [50 mM HEPES, pH 7.5, 150 mM NaCl, 0.5% Triton X-100, 1 mM EDTA, 1 mM EGTA, 10 mM NaF, 2.5 mM Na3VO4, complete protease inhibitor cocktail (Roche, Basel, Switzerland), phosphatase inhibitor cocktail 2, and 3 (Sigma, St. Louis, MO, USA)]. Lysates were sonicated then clarified by centrifugation at 14000 V g for 15 min at 4 °C. Lysate was then filtered through a […] syringe filter and frozen at −80 °C until use. Protein concentration was quantified using a Bradford assay the day of the experiment. DMSO or the indicated concentration of 16, 17, and 26 were added to lysate containing 4 mg of total protein. Lysates were vortexed briefly then incubated for 30 min on ice. Kinases were affinity purified as previously described. Briefly, lysates were diluted to 1.33 mg mL^−1 with lysis buffer then NaCl concentration brought to 1 M.
Diluted lysates were passed over a mixture of […] of settled beads of each of the following inhibitors conjugated to ECH Sepharose beads: Purvalanol B, PP58, VI-16832, UNC21474A, UNC8088A, and […] of settled beads conjugated to CTx-0294885 and VI-16832 [69]. The kinase inhibitor–bead conjugates were previously equilibrated in high-salt buffer (50 mM HEPES pH 7.5, 1M NaCl, 0.5% Triton X-100, 1 mM EDTA, and 1 mM EGTA). MIBs columns were sequentially washed with high-salt buffer, low-salt buffer (50 mm HEPES pH 7.5, 150 mM NaCl, 0.5% Triton X-100, 1 mM EDTA, and 1 mM EGTA), and SDS buffer (50 mm HEPES pH 7.5, 150 mm NaCl, 0.5% Triton X-100, 1 mm EDTA, 1 mm EGTA, and 0.1% SDS). Proteins were eluted by boiling samples in elution buffer (100 mM Tris·HCl pH 6.8, 0.5% SDS, and 1% β-mercaptoethanol) for 15 min twice. Dithiothreitol (DTT) was added to a final concentration of 5 mm and samples were incubated at 60 °C for 25 min. Samples were then cooled to room temperature on ice and alkylated by adding iodoacetamide to a final concentration of 20 mm for 30 min in the dark at room temperature. Samples were then concentrated in 10K Amicon Ultra centrifugal concentrators (Millipore, Burlington, MA, USA) followed by methanol and chloroform precipitation of proteins. The final protein pellets were re-suspended in 50 mM HEPES pH 8.0 and incubated with trypsin at 37 °C overnight. Residual detergent was removed by three sequential ethyl acetate extractions then desalted using Pierce C18 spin columns (Thermo Scientific, Waltham, MA, USA) according to the manufacturer’s protocol.

5637 cells [8] = test: Cancer cell line viability screen (alamarBlue), 5637; conditions: for IC50: 72 h, read-out: IC50 5637
Procedure: as §1, §2

A-431 cells [9] = test: Cancer cell line viability screen (alamarBlue), A431; conditions: Homo sapiens, A-431, 72 h, read-out: IC50 A431
Procedure: as §1
(§3) Cells were seeded in 384-well plates and were treated with test compound in quadruplicate 24 h after plating. Cell viability was assessed at 72 h using alamarBlue (ThermoFisher, Waltham, MA, USA). […] IC50 values were determined by nonlinear regression using GraphPad PrismTM software (GraphPad Software Inc., San Diego, CA, US).

U-CH2 cells = test: Cancer cell line viability screen (alamarBlue), UCH2; conditions: UCH2, 72 h, read-out: IC50 UCH2
Procedure: as §1, §3

U-CH1 cells = test: Cancer cell line viability screen (alamarBlue), UCH1; conditions: UCH1, 72 h, read-out: IC50 UCH1
Procedure: as §1, §3

DU145 cells [10] = system: DU145 cells; parameters: method as in PMID 28373427; conditions: positive control; cited from earlier work
A-431 cells [11] = conditions: read-out: IC50 A431, positive control; cited from earlier work
WS-1 cell line [12] = conditions: read-out: IC50 WS-1, positive control; cited from earlier work
MCF-7 cells [13] = conditions: read-out: IC50 MCF7, positive control; cited from earlier work
PANC-1 cells [14] = system: PANC-1 cells; parameters: method as in PMID 22487525; conditions: positive control; read-out: IC50 PANC1, positive control; cited from earlier work
5637 cells [15] = system: 5637 cells; parameters: method as in PMID 23887605; conditions: positive control; cited from earlier work

Row | IC50 (PANC-1 cells [2]) [µM] | melting point | IC50 (MCF-7 cells [5]) [µM] | IC50 (DU145 cells [6]) [µM] | IC50 (5637 cells [8]) [µM] | IC50 (A-431 cells [9]) [µM] | IC50 (U-CH2 cells) [µM] | IC50 (U-CH1 cells) [µM] | Structure (SMILES) | IC50 (WS-1 cell line [4]) [µM] | kinases competitively displaced from the beads (hits) [7] | kinome profile [7] | also measured
1 |  |  |  |  |  |  |  |  | O=c1c(Nc2ccccc2)nsnc1Nc1ccccc1 [3,5-Bis(phenylamino)-4H-1,2,6-thiadiazin-4-one] |  |  |  | stability [1]: stable to neutral, acidic, or slightly basic aqueous conditions, the presence of amine or thiol nucleophiles, and oxidizing and reducing conditions
2 | 33 | 326 to 327 °C | 18 | 41 | 1.6 | > 100 | > 100 | 46 | O=c1c(Nc2cccc(O)c2)nsnc1-c1ccnc2[nH]ccc12 [Compound 16, 3-[(3-Hydroxyphenyl)amino]-5-(1H-pyrrolo[2,3-b]pyridin-4-yl)-4H-1,2,6-thiadiazin-4-one] | > 100 | weak interactions on MAP4K5, MAP4K3, PRKCD, and PKN1 just below the threshold | narrow spectrum kinome profile | stability [3]: the same results; increase in potency on the bladder cancer cell line (5637 cells [8]; 16 relative to methoxy analogue 15): 10 fold
3 | > 100 | 292 to 293 °C | 14 | 23 | 2.1 | > 100 | > 100 | > 100 | Cc1ccc(Nc2nsnc(-c3ccnc4[nH]ccc34)c2=O)cc1O [Compound 17, 3-[(3-Hydroxy-4-methylphenyl)amino]-5-(1H-pyrrolo[2,3-b]pyridin-4-yl)-4H-1,2,6-thiadiazin-4-one] | > 100 | AKT2, MAP2K4, MAP2K1, and STK35 being just below the threshold | narrow spectrum kinome profile | 
4 | > 100 | 280 °C (dec.) | 50 | 5.7 | 8.4 | > 100 | > 100 | 84 | O=c1c(Nc2ccc3[nH]ncc3c2)nsnc1-c1ccnc(F)c1 [Compound 26, 5-(2-Fluoropyridin-4-yl)-3-[(1H-indazol-5-yl)amino]-4H-1,2,6-thiadiazin-4-one] | > 100 | showing affinity for ACVR1B, ACVR2A, and STK35 | narrow spectrum kinome profile but was a weak inhibitor | 
5 |  |  |  |  |  |  |  |  | CC(=O)O[C@@]12CO[C@@H]1C[C@H](O)[C@@]1(C)C(=O)[C@H](O)C3=C(C)[C@@H](OC(=O)[C@H](O)[C@@H](NC(=O)OC(C)(C)C)c4ccccc4)C[C@@](O)([C@@H](OC(=O)c4ccccc4)[C@H]21)C3(C)C [docetaxel] |  |  |  | IC50 (DU145 cells [10]): 0.005 µM
6 |  |  |  |  |  |  |  |  | CS(=O)(=O)CCNCc1ccc(-c2ccc3ncnc(Nc4ccc(OCc5cccc(F)c5)c(Cl)c4)c3c2)o1 [lapatinib] |  |  |  | IC50 (A-431 cells [11]): 0.1 µM; IC50 (WS-1 cell line [12]): 13 µM; IC50 (MCF-7 cells [13]): 6.3 µM
7 |  |  |  |  |  |  |  |  | Cc1[nH]c2ccccc2c1CCNCc1ccc(/C=C/C(=O)NO)cc1 [panobinostat] |  |  |  | IC50 (PANC-1 cells [14]): 1 µM
8 |  |  |  |  |  |  |  |  | Cc1ccc(Nc2nccc(N(C)c3ccc4c(C)n(C)nc4c3)n2)cc1S(N)(=O)=O [pazopanib] |  |  |  | IC50 (5637 cells [15]): 15 µM
